The numbers were not newly measured in PubChem BioAssay AID1259409 (Chemical Carcinogenesis Research Information System (CCRIS), 2018), which cites them from elsewhere.

The subject of the data set is rodent chemically induced tumor inhibition, incidence and multiplicity. The data set can be described thus: CCRIS tumor inhibitor studies. The settings on record: Carcinogen: 4-(METHYLNITROSAMINO)-1-(3-PYRIDYL)-1-BUTANONE, 64091-91-4, Dose [Inhibitor]: 0, Promoter: NONE USED.

With `S=C=NCCCCCCc1ccccc1`, the “tumour outcome (control, treated, inhibition, significance)” value by setting is: (1 UMOL 1/D FOR 4 D ADMINISTERED PRIOR TO CARCINOGEN TREATMENT (STUDY DURATION: 116 D), Route [Inhibitor]: GAVAGE, Species: MOUSE, Strain/Sex: STRAIN A, Target Tissue: Type of Lesion: LUNG: ADENOMA, Dose [Carcinogen]: 10 UMOL ONCE 2 HR AFTER FINAL DOSE OF INHIBITOR) 100%, 0%, 100%, p<0.05; (5 UMOL 1/D FOR 4 D ADMINISTERED PRIOR TO CARCINOGEN TREATMENT (STUDY DURATION: 116 D), Route [Inhibitor]: GAVAGE, Species: MOUSE, Strain/Sex: STRAIN A, Target Tissue: Type of Lesion: LUNG: ADENOMA, Dose [Carcinogen]: 10 UMOL ONCE 2 HR AFTER FINAL DOSE OF INHIBITOR) 100%, 5%, 95%, p<0.05; (0.04 UMOL ONCE 2 HR PRIOR TO CARCINOGEN DOSE (STUDY DURATION: 16 WK), Route [Inhibitor]: GAVAGE, Species: MOUSE, Strain/Sex: STRAIN-A/FEMALE, Target Tissue: Type of Lesion: LUNG: ADENOMA, Dose [Carcinogen]: 10 UMOL IN 0.1 ML SALINE ONCE) 100%, 100%, 0%, not significant; (0.1 UMOL ONCE 2 HR PRIOR TO CARCINOGEN DOSE (STUDY DURATION: 16 WK), Route [Inhibitor]: GAVAGE, Species: MOUSE, Strain/Sex: STRAIN-A/FEMALE, Target Tissue: Type of Lesion: LUNG: ADENOMA, Dose [Carcinogen]: 10 UMOL IN 0.1 ML SALINE ONCE) 100%, 100%, 0%, not significant; (0.2 UMOL ONCE 2 HR PRIOR TO CARCINOGEN DOSE (STUDY DURATION: 16 WK), Route [Inhibitor]: GAVAGE, Species: MOUSE, Strain/Sex: STRAIN-A/FEMALE, Target Tissue: Type of Lesion: LUNG: ADENOMA, Dose [Carcinogen]: 10 UMOL IN 0.1 ML SALINE ONCE) 100%, 100%, 0%, not significant; (1 UMOL/G DIET FOR DURATION OF STUDY BEGINNING 1 WK PRIOR TO CARCINOGEN TREATMENT (STUDY DURATION: 112 WK), Route [Inhibitor]: ORAL, Species: RAT, Strain/Sex: F344/MALE, Target Tissue: Type of Lesion: HEMATOPOIETIC SYSTEM: LEUKEMIA OR LYMPHOMA, Dose [Carcinogen]: 2 PPM IN DRINKING WATER FOR 111 WK) 26/56 (46%), 11/57 (19%), 59%, p=0.002. In addition, the “tumour outcome (control, treated, inhibition, significance)” value is listed as 2/55 (4%), 4/50 (8%), -100%, not significant (1 UMOL/G DIET FOR DURATION OF STUDY BEGINNING 1 WK PRIOR TO CARCINOGEN TREATMENT (STUDY DURATION: 112 WK), Route [Inhibitor]: ORAL, Species: RAT, Strain/Sex: F344/MALE, Target Tissue: Type of Lesion: LIVER: ADENOMA, Dose [Carcinogen]: 2 PPM IN DRINKING WATER FOR 111 WK); 3/55 (5%), 1/50 (2%), 60%, not significant (1 UMOL/G DIET FOR DURATION OF STUDY BEGINNING 1 WK PRIOR TO CARCINOGEN TREATMENT (STUDY DURATION: 112 WK), Route [Inhibitor]: ORAL, Species: RAT, Strain/Sex: F344/MALE, Target Tissue: Type of Lesion: LIVER: CARCINOMA, Dose [Carcinogen]: 2 PPM IN DRINKING WATER FOR 111 WK); 23/56 (41%), 9/57 (16%), 61%, p=0.003 (1 UMOL/G DIET FOR DURATION OF STUDY BEGINNING 1 WK PRIOR TO CARCINOGEN TREATMENT (STUDY DURATION: 112 WK), Route [Inhibitor]: ORAL, Species: RAT, Strain/Sex: F344/MALE, Target Tissue: Type of Lesion: LUNG: ADENOCARCINOMA, Dose [Carcinogen]: 2 PPM IN DRINKING WATER FOR 111 WK); 16/56 (29%), 6/57 (11%), 62%, p=0.015 (1 UMOL/G DIET FOR DURATION OF STUDY BEGINNING 1 WK PRIOR TO CARCINOGEN TREATMENT (STUDY DURATION: 112 WK), Route [Inhibitor]: ORAL, Species: RAT, Strain/Sex: F344/MALE, Target Tissue: Type of Lesion: LUNG: ADENOMA, Dose [Carcinogen]: 2 PPM IN DRINKING WATER FOR 111 WK); 1/48 (2%), 2/45 (4%), -100%, not significant (1 UMOL/G DIET FOR DURATION OF STUDY BEGINNING 1 WK PRIOR TO CARCINOGEN TREATMENT (STUDY DURATION: 112 WK), Route [Inhibitor]: ORAL, Species: RAT, Strain/Sex: F344/MALE, Target Tissue: Type of Lesion: NASAL CAVITY: PAPILLOMA OR CARCINOMA, Dose [Carcinogen]: 2 PPM IN DRINKING WATER FOR 111 WK).
